Source: patent publication US8362031B2, “Lonidamine analogues and treatment of polycystic kidney disease” (University of Kansas, priority 2004, dated 2013)

Tested on: Salmonella Typhimurium TA 100
Assay: Ames test for mutagenicity (plate assay, colony count)
Details: 48 hours at 37° C.; for Ames test (+)S9 0.1 mg/pl. / Ames test (+)S9 1 mg/pl. / Ames test (+)S9 10 mg/pl.: (+)S9 mix; for Ames test (−)S9 0.1 mg/pl. / Ames test (−)S9 1 mg/pl. / Ames test (−)S9 10 mg/pl.: (−)S9 mix

Row | Compound | Ames test (+)S9 0.1 mg/pl. | Ames test (+)S9 1 mg/pl. | Ames test (+)S9 10 mg/pl. | Ames test (−)S9 0.1 mg/pl. | Ames test (−)S9 1 mg/pl. | Ames test (−)S9 10 mg/pl.
1 | O=C(O)c1nn(Cc2ccc(F)cc2F)c2cc(Cl)ccc12 [JWS-1-284, 1-(2,4-difluorobenzyl)-6-chloro-1H-indazole-3-carboxylic acid] | Pass | Fail | Fail | Pass | Fail | Fail
2 | O=C(O)c1nn(Cc2ccc(Cl)cc2Cl)c2cc(C(F)(F)F)cnc12 [JWS-1-230, 1-(2,4-dichlorobenzyl)-6-trifluoromethyl-1H-pyrazolo[4,3-b]pyridine-3-carboxylic acid] | Pass | Pass | Pass | Pass | Pass | Pass
3 | O=C(O)c1nn(Cc2ccc(F)cc2Cl)c2cc(C(F)(F)F)ccc12 [JWS-2-14, 1-(2-chloro-4-fluorobenzyl)-6-trifluoromethyl-1H-indazole-3-carboxylic acid] | Pass | Pass | Fail | Pass | Fail | Fail
4 | O=C(O)/C=C/c1nn(Cc2ccc(F)cc2Cl)c2cc(Cl)ccc12 [JWS-2-36, 3-[1-(2-chloro, 4-fluorobenzyl)-6-chloro-1H-indazol-3-yl]-acrylic acid] | Pass | Pass | Pass | Pass | Fail | Pass
5 | COC(=O)c1nn(Cc2ccc(F)cc2F)c2ccc(C(F)(F)F)cc12 [JWS-1-300, 1-(2,4-difluorobenzyl)-5-trifluoromethyl-1H-indazole-3-carboxylic acid methyl ester] | Pass | Fail | Fail | Pass | Fail | Fail
6 | O=C(O)/C=C/c1nn(Cc2ccc(F)cc2F)c2cc(Cl)ccc12 [JWS-1-298, 3-[1-(2,4-difluorobenzyl)-6-chloro-1H-indazol-3-yl]-acrylic acid] | Pass | Fail | Fail | Pass | Fail | Fail
7 | NNC(=O)/C=C/c1nn(Cc2ccc(Cl)cc2Cl)c2cc(C(F)(F)F)ccc12 [RC-MC-205, 3-[1-(2,4-dichlorobenzyl)-6-trifluoromethyl-1H-indazol-3-yl]-acrylic acid hydrazide] | Pass | Fail | Fail | Pass | Fail | Mar-
8 | O=C(O)/C=C/c1nn(Cc2ccc(F)cc2Cl)c2cc(C(F)(F)F)ccc12 [JWS-2-40, 3-[1-(2-chloro, 4-fluorobenzyl)-6-trifluoromethyl-1H-indazol-3-yl]-acrylic acid] | Pass | Pass | Pass | Pass | Pass | Mar-
9 | O=C(O)/C=C/c1nn(Cc2ccc(F)cc2F)c2ccc(C(F)(F)F)cc12 [JWS-2-10, 3-[1-(2,4-difluorobenzyl)-5-trifluoromethyl-1H-indazol-3-yl]-acrylic acid] | Pass | Pass | Pass | Pass | Pass | Pass
10 | O=C(O)c1nn(Cc2ccc(F)cc2F)c2ccc(C(F)(F)F)cc12 [JWS-2-1, 1-(2,4-difluorobenzyl)-5-trifluoromethyl-1H-indazole-3-carboxylic acid] | Pass | Pass | Pass | Pass | Mar- | Fail
11 | COC(=O)c1nn(Cc2ccc(Cl)cc2Cl)c2cc(C(F)(F)F)cnc12 [JWS-1-228, 1-(2,4-dichlorobenzyl)-6-trifluoromethyl-1H-pyrazolo[4,3-b]pyridine-3-carboxylic acid methyl ester] | Pass | Pass | Pass | Pass | Pass | Pass
12 | NNC(=O)c1nn(Cc2ccc(F)cc2F)c2ccc(C(F)(F)F)cc12 [JWS-1-302, 1-(2,4-difluorobenzyl)-5-trifluoromethyl-1H-indazole-3-carboxylic acid hydrazide] | Pass | Pass | Fail | Pass | Pass | Pass
13 | NNC(=O)c1nn(Cc2ccc(Cl)cc2Cl)c2cc(C(F)(F)F)cnc12 [JWS-1-232, 1-(2,4-dichlorobenzyl)-6-trifluoromethyl-1H-pyrazolo[4,3-b]pyridine-3-carboxylic acid hydrazide] | Pass | Pass | Pass | Pass | Pass | Pass
14 | NNC(=O)c1nn(Cc2ccc(Cl)cc2Cl)c2cc(Cl)ccc12 [DD-MC-II, 6-chloro-1-(2,4-dichlorobenzyl)-1H-indazole-3-carboxylic acid hydrazide] | Pass | Pass | Pass | Pass | Pass | Pass
15 | O=C(O)c1nn(Cc2ccc(Cl)cc2Cl)c2ccc(C(F)(F)F)cc12 [JWS-1-260, 1-(2,4-dichlorobenzyl)-5-trifluoromethyl-1H-indazole-3-carboxylic acid] | Pass | Pass | Pass | Pass | Pass | Pass
16 | NNC(=O)c1nn(Cc2ccc(Cl)cc2Cl)c2ccc(C(F)(F)F)cc12 [JWS-1-258, 1-(2,4-dichlorobenzyl)-5-trifluoromethyl-1H-indazole-3-carboxylic acid hydrazide] | Pass | Pass | Pass | Pass | Pass | Pass
17 | O=C(O)/C=C/c1nn(Cc2ccc(Cl)cc2Cl)c2ccc(C(F)(F)F)cc12 [JWS-1-268, 3-[1-(2,4-dichlorobenzyl)-5-trifluoromethyl-1H-indazol-3-yl]-acrylic acid] | Pass | Pass | Pass | Pass | Pass | Pass
18 | O=C(O)/C=C/c1nn(Cc2ccc(Cl)cc2Cl)c2ncccc12 [RC-MC-65, 3-[1-(2,4-dichlorobenzyl)-1H-pyrazolo[3,4-b]pyridine-3-yl]-acrylic acid] | Pass | Fail | Fail | Pass | Fail | Fail
19 | COC(=O)C=Cc1nn(Cc2ccc(Cl)cc2Cl)c2cc(C(F)(F)F)ccc12 [RC-MC-200] | Pass | Fail | Fail | Pass | Pass | Pass
20 | O=C(O)c1nn(Cc2ccc(F)cc2Cl)c2cc(Cl)ccc12 [JWS-2-20, 1-(2-chloro-4-fluorobenzyl)-6-chloro-1H-indazole-3-carboxylic acid] | Pass | Fail | Fail | Mar- | Fail | Fail
21 | COC(=O)c1nn(Cc2ccc(F)cc2Cl)c2cc(Cl)ccc12 [JWS-2-18, 1-(2-chloro-4-fluorobenzyl)-6-chloro-1H-indazole-3-carboxylic acid methyl ester] | Pass | Fail | Fail | Pass | Pass | Mar-
22 | O=C(O)/C=C/c1nn(Cc2ccc(F)cc2F)c2cc(C(F)(F)F)ccc12 [JWS-1-294, 3-[1-(2,4-difluorobenzyl)-6-trifluoromethyl-1H-indazol-3-yl]-acrylic acid] | Pass | Pass | Pass | Pass | Pass | Pass
23 | O=C(O)c1nn(Cc2ccc(Cl)cc2Cl)c2cnccc12 [JWS-1-132, 1-(2,4-dichlorobenzyl)-1H-pyrazolo[3,4-c]pyridine-3-carboxylic acid] | Pass | Pass | Pass | Pass | Pass | Pass
24 | NNC(=O)c1nn(Cc2ccc(Cl)cc2Cl)c2cccnc12 [JWS-1-112, 1-(2,4-dichlorobenzyl)-1H-pyrazolo[4,3-b]pyridine-3-carboxylic acid hydrazide] | Pass | Pass | Pass | Pass | Fail | Fail
